The supplement of paper PMC11061612

What was measured:
Assay in all cases: combination Emax (second highest fraction inhibited in the dose matrix, 72 h); higher = more inhibition; extreme values may be limits of the assay
GOTO (Neuroblastoma) = tested on: GOTO (Neuroblastoma)
In short: (§1)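 Cell lines in DMEM/F12 or RPMI with 10% FBS were plated in 1536-well plates, held 24 hours at 37°C, 5% CO2, then given two-drug dose matrices for 72 hours (DMSO typically 0.2%). Viability was read by CellTiter-Glo 2.0 luminescence and scaled as inhibition from 0 (vehicle wells) to 1 (blank wells). Combination Emax is the second-highest inhibition in the matrix; Bliss excess is observed combination effect minus expected EA + EB − EA·EB, EA and EB being single-agent effects.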

[1] = tested on: PF-382 (T-Lymphoblastic Leukemia)
In short: as §1

A704 (Kidney Carcinoma) = tested on: A704 (Kidney Carcinoma)
In short: as §1

[2] = tested on: KU-19-19 (Bladder Carcinoma)
In short: as §1

BT-20 (Breast Carcinoma) = tested on: BT-20 (Breast Carcinoma)
In short: as §1

[3] = tested on: HC-1 (Other Blood Carcinomas)
In short: as §1

[4] = tested on: TGBC11TKB (Gastric Carcinoma)
In short: as §1

[5] = tested on: VMRC-LCD (Lung Adenocarcinoma)
In short: as §1

[6] = tested on: LOU-NH91 (Squamous Cell Lung Carcinoma)
In short: as §1

[7] = tested on: HSC-2 (Oral Cavity Carcinoma)
In short: as §1

U-87-MG (Glioblastoma) = tested on: U-87-MG (Glioblastoma)
In short: as §1

[8] = tested on: HuP-T3 (Pancreatic Carcinoma)
In short: as §1

[9] = tested on: KLE (Endometrial Carcinoma)
In short: as §1

[10] = tested on: KINGS-1 (Low Grade Glioma)
In short: as §1

RPMI-7951 (Melanoma) = tested on: RPMI-7951 (Melanoma)
In short: as §1

[11] = tested on: EBC-1 (Squamous Cell Lung Carcinoma)
In short: as §1

NB7 (Neuroblastoma) = tested on: NB7 (Neuroblastoma)
In short: as §1

[12] = tested on: OCUB-M (Breast Carcinoma)
In short: as §1

[13] = tested on: NCI-H322M (Lung Adenocarcinoma)
In short: as §1

NH-12 (Neuroblastoma) = tested on: NH-12 (Neuroblastoma)
In short: as §1

Row | Compound | combination Emax (GOTO (Neuroblastoma)) | combination Emax [1] | combination Emax (A704 (Kidney Carcinoma)) | combination Emax [2] | combination Emax (BT-20 (Breast Carcinoma)) | combination Emax [3] | combination Emax [4] | combination Emax [5] | combination Emax [6] | combination Emax [7] | combination Emax (U-87-MG (Glioblastoma)) | combination Emax [8] | combination Emax [9] | combination Emax [10] | combination Emax (RPMI-7951 (Melanoma)) | combination Emax [11] | combination Emax (NB7 (Neuroblastoma)) | combination Emax [12] | combination Emax [13] | combination Emax (NH-12 (Neuroblastoma))
1 | CN(CCO)CC[C@H](CSc1ccccc1)Nc1ccc(S(=O)(=O)NC(=O)c2ccc(N3CCC([C@@H](O)c4ccccc4-c4ccc(Cl)cc4)CC3)cc2)cc1S(=O)(=O)C(F)(F)F [AZD4320] + C[C@@H]1COCCN1C2=NC(=NC(=C2)C3(CC3)[S@](=N)(=O)C)C4=C5C=CNC5=NC=C4 [AZD6738] (first compound max 1 µM, 7x7, partner max 10 µM) | 0.909 | 1 | 0.809 | 0.878 | 0.765 | 0.958 | 0.935 | 0.611 | 0.575 | 0.925 | 0.501 | 0.706 | 0.608 | 0.53 | 0.951 | 0.935 | 0.691 | 0.823 | 0.915 | 1
2 | NC1(C(=O)N[C@@H](CCO)c2ccc(Cl)cc2)CCN(c2ncnc3[nH]ccc23)CC1 [Capivasertib] + CCN(CCO)CCCOc1ccc2c(Nc3cc(CC(=O)Nc4cccc(F)c4)[nH]n3)ncnc2c1 [AZD2811] (first compound max 10 µM, 7x7, partner max 1 µM) | 0.793 | 0.916 | 0.324 | 0.515 | 0.765 | 0.629 | 0.244 | 0.59 | 0.519 | 0.707 | 0.648 | 0.249 | 0.332 | 0.429 | 0.766 | 0.395 | 0.613 | 1 | 0.338 | 0.728
3 | Cc1nc(Nc2ncc(C(=O)Nc3c(C)cccc3Cl)s2)cc(N2CCN(CCO)CC2)n1 [Dasatinib] + CC(=O)Nc1cccc(-n2c(=O)n(C3CC3)c(=O)c3c(Nc4ccc(I)cc4F)n(C)c(=O)c(C)c32)c1 [Trametinib] (first compound max 2 µM, 7x7, partner max 1 µM) | 0.398 | 0.991 | 1 | 1 | 0.68 | 0.494 | 0.492 | 0.163 | 0.674 | 0.804 | 0.384 | 0.868 | 0.724 | 0.465 | 0.87 | 0.997 | 0.65 | 0.0542 | 0.721 | 0.644
4 | NC1(C(=O)N[C@@H](CCO)c2ccc(Cl)cc2)CCN(c2ncnc3[nH]ccc23)CC1 [Capivasertib] + C[C@@H]1COCCN1C2=NC(=NC(=C2)C3(CC3)[S@](=N)(=O)C)C4=C5C=CNC5=NC=C4 [AZD6738] (first compound max 10 µM, 7x7, partner max 10 µM) | 0.948 | 0.974 | 0.524 | 0.69 | 0.771 | 0.749 | 0.778 | 0.566 | 0.569 | 0.701 | 0.714 | 0.645 | 0.59 | 0.425 | 0.892 | 0.601 | 0.635 | 1 | 0.81 | 0.832
5 | CC1(C)CCC(CN2CCN(c3ccc(C(=O)NS(=O)(=O)c4ccc(NCC5CCOCC5)c([N+](=O)[O-])c4)c(Oc4cnc5[nH]ccc5c4)c3)CC2)=C(c2ccc(Cl)cc2)C1 [Venetoclax] + CCN(CCO)CCCOc1ccc2c(Nc3cc(CC(=O)Nc4cccc(F)c4)[nH]n3)ncnc2c1 [AZD2811] (first compound max 1 µM, 7x7, partner max 1 µM) | 0.693 | 0.905 | 0.167 | 0.404 | 0.294 | 0.712 | 0.424 | 0.626 | 0.307 | 0.327 | 0.265 | 0.197 | 0.273 | 0.243 | 0.454 | 0.225 | 0.259 | 0.749 | 0.188 | 0.933
6 | Cc1c2c(nn1C)CSCc1cc(n(C)n1)CSc1cc(c3ccccc3c1)OCCCc1c(C(=O)O)n(C)c3c-2c(Cl)ccc13 [AZD5991] + Cc1cc2ncnn2cc1Nc1ncc2c(n1)n(C1CCOCC1)c(=O)n2C [AZD7648] (first compound max 1 µM, 7x7, partner max 10 µM) | 0.72 | 0.353 | 0.259 | 0.26 | 0.694 | 0.456 | 0.359 | 0.215 | 0.278 | 0.844 | 0.326 | 0.228 | 0.342 | 0.326 | 0.91 | 0.291 | 0.546 | 0.983 | 0.459 | 0.226
7 | CC1(C)CCC(CN2CCN(c3ccc(C(=O)NS(=O)(=O)c4ccc(NCC5CCOCC5)c([N+](=O)[O-])c4)c(Oc4cnc5[nH]ccc5c4)c3)CC2)=C(c2ccc(Cl)cc2)C1 [Venetoclax] + C[C@@H](Nc1cc(F)cc(F)c1)c1cc(C(=O)N(C)C)cc2c(=O)cc(N3CCOCC3)oc12 [AZD8186] (first compound max 1 µM, 7x7, partner max 3 µM) | 0.305 | 0.202 | 0.429 | 0.0745 | 0.0992 | 0.616 | 0.203 | 0.093 | 0.221 | 0.92 | 0.44 | 0.119 | 0.41 | 0.332 | 0.496 | 0.209 | 0.295 | 0.276 | 0.237 | 0.612
8 | NC1(C(=O)N[C@@H](CCO)c2ccc(Cl)cc2)CCN(c2ncnc3[nH]ccc23)CC1 [Capivasertib] + COc1nnc2ccc(N3CCC(c4ccc(OCCN5CCN(C)C(=O)[C@H]5C)cc4)CC3)nn12 [AZD5153] (first compound max 10 µM, 7x7, partner max 1 µM) | 0.802 | 1 | 0.645 | 0.746 | 0.813 | 0.664 | 0.253 | 0.454 | 0.656 | 0.874 | 0.671 | 0.522 | 0.639 | 0.349 | 0.865 | 0.829 | 0.762 | 0.998 | 0.615 | 0.634
9 | COc1nnc2ccc(N3CCC(c4ccc(OCCN5CCN(C)C(=O)[C@H]5C)cc4)CC3)nn12 [AZD5153] + CC1(C)CCC(CN2CCN(c3ccc(C(=O)NS(=O)(=O)c4ccc(NCC5CCOCC5)c([N+](=O)[O-])c4)c(Oc4cnc5[nH]ccc5c4)c3)CC2)=C(c2ccc(Cl)cc2)C1 [Venetoclax] (first compound max 1 µM, 7x7, partner max 1 µM) | 0.813 | 0.871 | 0.585 | 0.63 | 0.138 | 0.557 | 0.324 | 0.489 | 0.641 | 0.662 | 0.546 | 0.517 | 0.609 | 0.159 | 0.559 | 0.802 | 0.37 | 0.39 | 0.515 | 0.737
10 | Cn1cnc2c(F)c(Nc3ccc(Br)cc3Cl)c(C(=O)NOCCO)cc21 [Selumetinib] + C[C@@H]1COCCN1C2=NC(=NC(=C2)C3(CC3)[S@](=N)(=O)C)C4=C5C=CNC5=NC=C4 [AZD6738] (first compound max 10 µM, 7x7, partner max 10 µM) | 0.946 | 0.912 | 0.391 | 0.89 | 0.576 | 0.793 | 0.854 | 0.732 | 0.353 | 0.569 | 0.457 | 0.517 | 0.442 | 0.292 | 0.873 | 0.934 | 0.597 | 0.249 | 0.88 | 0.91
11 | Cc1c2c(nn1C)CSCc1cc(n(C)n1)CSc1cc(c3ccccc3c1)OCCCc1c(C(=O)O)n(C)c3c-2c(Cl)ccc13 [AZD5991] + Cn1cnc2c(F)c(Nc3ccc(Br)cc3Cl)c(C(=O)NOCCO)cc21 [Selumetinib] (first compound max 1 µM, 7x7, partner max 3 µM) | 0.714 | 0.207 | 0.306 | 0.885 | 0.763 | 0.402 | 0.683 | 0.174 | 0.581 | 0.907 | 0.372 | 0.462 | 0.287 | 0.354 | 0.934 | 0.827 | 0.536 | 0.979 | 0.566 | 0.568
12 | CN(CCO)CC[C@H](CSc1ccccc1)Nc1ccc(S(=O)(=O)NC(=O)c2ccc(N3CCC([C@@H](O)c4ccccc4-c4ccc(Cl)cc4)CC3)cc2)cc1S(=O)(=O)C(F)(F)F [AZD4320] + C=CCn1c(=O)c2cnc(Nc3ccc(N4CCN(C)CC4)cc3)nc2n1-c1cccc(C(C)(C)O)n1 [AZD1775] (first compound max 1 µM, partner max 1 µM) | 0.855 | 1 | 0.781 | 0.964 | 0.787 | 1 | 0.964 | 0.562 | 0.822 | 0.639 | 0.187 | 0.412 | 0.573 | 0.526 | 0.879 | 0.975 | 0.689 | 0.487 | 0.851 | 0.98
